Assay results published in US6689773B2, “Uracil substituted phenyl sulfamoyl carboxamides” (BASF Aktiengesellschaft, priority 2000, dated 2004).

Tests used:
Format in all cases: in vivo
[1] = tested on: XANST, Cocklebur, Xanthium strumariam; assay: Postemergence herbicidal evaluation (Example 147); conditions: rating scale 0-9, two to three weeks after treatment
Outline: (§1)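 Visual 0-9 rating against an untreated control, scored roughly two to three weeks after a postemergence spray of two-week-old seedlings. Dose equivalent about 0.016 to 0.032 kg/ha, delivered in 80/20 acetone/water with 1.0% SUN-IT II at 40 psi.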

[2] = tested on: AMBEL, Ragweed, Common, Ambrosia artemiisifolia, L.; assay: Postemergence herbicidal evaluation (Example 147); conditions: rating scale 0-9, two to three weeks after treatment
Outline: as §1

[3] = tested on: ZEAMX, Field corn, Zea mays L.; assay: Postemergence herbicidal evaluation (Example 147); conditions: rating scale 0-9, two to three weeks after treatment
Outline: as §1

[4] = tested on: GLXMA, Soybean, Glycine max, (L.) Merr.; assay: Postemergence herbicidal evaluation (Example 147); conditions: rating scale 0-9, two to three weeks after treatment
Outline: as §1

[5] = tested on: DIGSA, Crabgrass, (Hairy) L, Digitaria sanguinalis, (L)Scop; assay: Postemergence herbicidal evaluation (Example 147); conditions: rating scale 0-9, two to three weeks after treatment
Outline: as §1

[6] = tested on: IPOHE, Morningglory, Ivyleaf, Ipomoea hederacea, (L)Jacq.; assay: Postemergence herbicidal evaluation (Example 147); conditions: rating scale 0-9, two to three weeks after treatment
Outline: as §1

[7] = tested on: SETVI, Green foxtail, Setaria viridis, (L.)Beau; assay: Postemergence herbicidal evaluation (Example 147); conditions: rating scale 0-9, two to three weeks after treatment
Outline: as §1

[8] = tested on: ABUTH, Velvetleaf, Abutilon theophrasti, Medic.; assay: Postemergence herbicidal evaluation (Example 147); conditions: rating scale 0-9, two to three weeks after treatment
Outline: as §1

[9] = tested on: CHEAL, Lambsquarters, Chenopodium album, L. Common; assay: Postemergence herbicidal evaluation (Example 147); conditions: rating scale 0-9, two to three weeks after treatment
Outline: as §1

[10] = tested on: ECHCG, Barnyardgrass, Echinochloa crusgalli, (L.)Beau; assay: Postemergence herbicidal evaluation (Example 147); conditions: rating scale 0-9, two to three weeks after treatment
Outline: as §1

[11] = tested on: TRZAW, Winter wheat, Tritium Aestivum, L. (Winter); assay: Postemergence herbicidal evaluation (Example 147); conditions: rating scale 0-9, two to three weeks after treatment
Outline: as §1

[12] = tested on: ALOMY, Blackgrass, Alopecurus myosuroides; assay: Postemergence herbicidal evaluation (Example 147); conditions: rating scale 0-9, two to three weeks after treatment
Outline: as §1

[13] = tested on: XANST, Cocklebur, Xanthium strumariam; assay: Preemergence herbicidal evaluation (Example 148); conditions: rating scale 0-9, two to four weeks after treatment
Outline: (§2)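 Sow seed–soil mix onto ~1 in soil; spray aqueous acetone compound solution (~0.125–0.250 kg/ha equivalent); keep on greenhouse benches under standard watering; score injury visually after 2–4 weeks.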

[14] = tested on: AMBEL, Ragweed, Common, Ambrosia artemiisifolia, L.; assay: Preemergence herbicidal evaluation (Example 148); conditions: rating scale 0-9, two to four weeks after treatment
Outline: as §2

[15] = tested on: ZEAMX, Field corn, Zea mays L.; assay: Preemergence herbicidal evaluation (Example 148); conditions: rating scale 0-9, two to four weeks after treatment
Outline: as §2

[16] = tested on: GLXMA, Soybean, Glycine max, (L.) Merr.; assay: Preemergence herbicidal evaluation (Example 148); conditions: rating scale 0-9, two to four weeks after treatment
Outline: as §2

[17] = tested on: DIGSA, Crabgrass, (Hairy) L, Digitaria sanguinalis, (L)Scop; assay: Preemergence herbicidal evaluation (Example 148); conditions: rating scale 0-9, two to four weeks after treatment
Outline: as §2

[18] = tested on: IPOHE, Morningglory, Ivyleaf, Ipomoea hederacea, (L)Jacq.; assay: Preemergence herbicidal evaluation (Example 148); conditions: rating scale 0-9, two to four weeks after treatment
Outline: as §2

[19] = tested on: SETVI, Green foxtail, Setaria viridis, (L.)Beau; assay: Preemergence herbicidal evaluation (Example 148); conditions: rating scale 0-9, two to four weeks after treatment
Outline: as §2

[20] = tested on: ABUTH, Velvetleaf, Abutilon theophrasti, Medic.; assay: Preemergence herbicidal evaluation (Example 148); conditions: rating scale 0-9, two to four weeks after treatment
Outline: as §2

[21] = tested on: CHEAL, Lambsquarters, Chenopodium album, L. Common; assay: Preemergence herbicidal evaluation (Example 148); conditions: rating scale 0-9, two to four weeks after treatment
Outline: as §2

[22] = tested on: ECHCG, Barnyardgrass, Echinochloa crusgalli, (L.)Beau; assay: Preemergence herbicidal evaluation (Example 148); conditions: rating scale 0-9, two to four weeks after treatment
Outline: as §2

[23] = tested on: TRZAW, Winter wheat, Tritium Aestivum, L. (Winter); assay: Preemergence herbicidal evaluation (Example 148); conditions: rating scale 0-9, two to four weeks after treatment
Outline: as §2

[24] = tested on: ALOMY, Blackgrass, Alopecurus myosuroides; assay: Preemergence herbicidal evaluation (Example 148); conditions: rating scale 0-9, two to four weeks after treatment
Outline: as §2

In the case of “3-(5-(N,N-Dimethyl)sulfamoylcarboxamido-4-chloro-2-fluorophenyl)-1,2,3,4-dihydro-6-trifluoromethylpyrimidin-2,4-dione [Example 54]”, the “Postemergence herbicidal rating XANST” value ([1]; rate 0.016 kg/ha) is reported as 9.0, the “Postemergence herbicidal rating XANST” value ([1]; rate 0.032 kg/ha) is reported as 9.0 and the “Postemergence herbicidal rating AMBEL” value ([2]; rate 0.016 kg/ha) is reported as 9.0. For the same substance, the “Postemergence herbicidal rating AMBEL” value ([2]; rate 0.032 kg/ha) was 9.0, the “Postemergence herbicidal rating ZEAMX” value ([3]; rate 0.016 kg/ha) was 6.5 and the “Postemergence herbicidal rating ZEAMX” value ([3]; rate 0.032 kg/ha) was 7.5. For the same substance, the “Postemergence herbicidal rating GLXMA” value ([4]; rate 0.016 kg/ha) was 8.0, the “Postemergence herbicidal rating GLXMA” value ([4]; rate 0.032 kg/ha) was 8.5 and the “Postemergence herbicidal rating DIGSA” value ([5]; rate 0.016 kg/ha) was 5.0. For the same substance, the “Postemergence herbicidal rating DIGSA” value ([5]; rate 0.032 kg/ha) was 6.0, the “Postemergence herbicidal rating IPOHE” value ([6]; rate 0.016 kg/ha) was 9.0 and the “Postemergence herbicidal rating IPOHE” value ([6]; rate 0.032 kg/ha) was 9.0. The “Postemergence herbicidal rating SETVI” value ([7]; rate 0.016 kg/ha) was 7.0, the “Postemergence herbicidal rating SETVI” value ([7]; rate 0.032 kg/ha) was 7.0 and the “Postemergence herbicidal rating ABUTH” value ([8]; rate 0.016 kg/ha) was 9.0. The “Postemergence herbicidal rating ABUTH” value ([8]; rate 0.032 kg/ha) was 9.0, the “Postemergence herbicidal rating CHEAL” value ([9]; rate 0.016 kg/ha) was 9.0 and the “Postemergence herbicidal rating CHEAL” value ([9]; rate 0.032 kg/ha) was 9.0. For the same substance, the “Postemergence herbicidal rating ECHCG” value ([10]; rate 0.016 kg/ha) was 6.0, the “Postemergence herbicidal rating ECHCG” value ([10]; rate 0.032 kg/ha) was 8.0 and the “Postemergence herbicidal rating TRZAW” value ([11]; rate 0.016 kg/ha) was 5.5. For the same substance, the “Postemergence herbicidal rating TRZAW” value ([11]; rate 0.032 kg/ha) was 6.0, the “Postemergence herbicidal rating ALMOY” value ([12]; rate 0.016 kg/ha) was 2.0 and the “Postemergence herbicidal rating ALMOY” value ([12]; rate 0.032 kg/ha) was 2.0. For the same substance, the “Preemergence herbicidal rating XANST” value ([13]; rate 0.125 kg/ha) was 1.0, the “Preemergence herbicidal rating XANST” value ([13]; rate 0.25 kg/ha) was 3.0 and the “Preemergence herbicidal rating AMBEL” value ([14]; rate 0.125 kg/ha) was 7.0. The “Preemergence herbicidal rating AMBEL” value ([14]; rate 0.25 kg/ha) was 8.0, the “Preemergence herbicidal rating ZEAMX” value ([15]; rate 0.125 kg/ha) was 0.0 and the “Preemergence herbicidal rating ZEAMX” value ([15]; rate 0.25 kg/ha) was 0.0. For the same substance, the “Preemergence herbicidal rating GLXMA” value ([16]; rate 0.125 kg/ha) was 0.0, the “Preemergence herbicidal rating GLXMA” value ([16]; rate 0.25 kg/ha) was 0.0 and the “Preemergence herbicidal rating DIGSA” value ([17]; rate 0.125 kg/ha) was 4.0. For the same substance, the “Preemergence herbicidal rating DIGSA” value ([17]; rate 0.25 kg/ha) was 6.0, the “Preemergence herbicidal rating IPOHE” value ([18]; rate 0.125 kg/ha) was 0.0 and the “Preemergence herbicidal rating IPOHE” value ([18]; rate 0.25 kg/ha) was 1.0. The “Preemergence herbicidal rating SETVI” value ([19]; rate 0.125 kg/ha) was 2.0, the “Preemergence herbicidal rating SETVI” value ([19]; rate 0.25 kg/ha) was 3.0 and the “Preemergence herbicidal rating ABUTH” value ([20]; rate 0.125 kg/ha) was 9.0. The “Preemergence herbicidal rating ABUTH” value ([20]; rate 0.25 kg/ha) was 9.0, the “Preemergence herbicidal rating CHEAL” value ([21]; rate 0.125 kg/ha) was 9.0 and the “Preemergence herbicidal rating CHEAL” value ([21]; rate 0.25 kg/ha) was 9.0. For the same substance, the “Preemergence herbicidal rating ECHCG” value ([22]; rate 0.125 kg/ha) was 3.0, the “Preemergence herbicidal rating ECHCG” value ([22]; rate 0.25 kg/ha) was 3.0 and the “Preemergence herbicidal rating TRZAW” value ([23]; rate 0.125 kg/ha) was 0.0. The “Preemergence herbicidal rating TRZAW” value ([23]; rate 0.25 kg/ha) was 0.0, the “Preemergence herbicidal rating ALMOY” value ([24]; rate 0.125 kg/ha) was 0.0 and the “Preemergence herbicidal rating ALMOY” value ([24]; rate 0.25 kg/ha) was 0.0.
